Ends that are not written are not given here. Peptide text beside a SMILES is read from it.
How the values were obtained:
kB2R = kB2R (Homo sapiens, UniProt P30411); details: HEK-kB2R
[1] = ref [2], [9], [21], [24]; cited from earlier work
[2] = tested on: HEK cells stably expressing kB1R; details: HEK cells expressing only the kB1R; 10 μM peptide in PBS; 30 min, 37 °C; HPLC
CPM = experiment: HEK cells stably expressing CPM, in PBS; details: human, 37 °C, up to 30 min

Chain of kB2R (P30411 whole entry): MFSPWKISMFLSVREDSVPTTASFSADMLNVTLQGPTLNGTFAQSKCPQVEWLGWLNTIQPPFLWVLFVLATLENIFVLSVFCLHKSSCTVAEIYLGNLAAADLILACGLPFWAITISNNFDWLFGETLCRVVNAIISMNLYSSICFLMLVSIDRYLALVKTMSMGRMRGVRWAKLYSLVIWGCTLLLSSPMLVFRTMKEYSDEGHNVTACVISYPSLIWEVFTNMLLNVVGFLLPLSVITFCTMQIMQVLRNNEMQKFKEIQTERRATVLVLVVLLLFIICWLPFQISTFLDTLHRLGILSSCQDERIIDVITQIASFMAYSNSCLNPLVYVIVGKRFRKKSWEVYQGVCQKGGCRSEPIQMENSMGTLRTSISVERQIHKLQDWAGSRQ

Compound	cleaved bond (CPM)	lifetime in vivo [1]	further results
N=C(N)NCCC[C@H](NC(=O)[C@H](Cc1ccccc1)NC(=O)[C@@H]1CCCN1C(=O)[C@H](CO)NC(=O)[C@H](Cc1ccccc1)NC(=O)CNC(=O)[C@@H]1CCCN1C(=O)[C@@H]1CCCN1C(=O)[C@@H](N)CCCNC(=N)N)C(=O)O [BK, Bradykinin] (H-RPPGFSPFR-OH)	–	–	maximal ERK1/2 phosphorylation maintained from 40 – 60 min (kB2R; 1 μM BK, 40 – 60 min): 40%
NC(N)=NCCC[C@H](NC(=O)[C@H](Cc1ccccc1)NC(=O)[C@@H]1CCCN1C(=O)[C@H](CO)NC(=O)[C@H](Cc1ccccc1)NC(=O)CNC(=O)[C@@H]1CCCN1C(=O)[C@@H]1CCCN1C(=O)[C@@H](N)CCCN=C(N)N)C(=O)O [BK, Bradykinin] (H-RPPGFSPFR-OH)	–	lower than 30 seconds	hydrolysis of peptide [2]: no detectable hydrolysis
NCCCC[C@H](N)C(=O)N[C@@H](CCCN=C(N)N)C(=O)N1CCC[C@H]1C(=O)N1CCC[C@H]1C(=O)NCC(=O)N[C@@H](Cc1ccccc1)C(=O)N[C@@H](CO)C(=O)N1CCC[C@H]1C(=O)N[C@@H](Cc1ccccc1)C(=O)N[C@@H](CCCN=C(N)N)C(=O)O [KD, Kallidin]	–	lower than 30 seconds	maximal ERK1/2 activation still remaining at 40 min (kB2R; 1 μM KD, 40 min): 80%
RPPGFSPFK	Phe-Lys9, 30 min	–	–

Continued, in another order:

cleaved bond (CPM)	Compound	lifetime in vivo [1]	further results
Phe-Lys10, 30 min	KRPPGFSPFK	–	–
Phe-Arg9, 30 min	RPPGFSPFR	–	–

Source: paper PMC3362676 (Cellular Signalling, 2012)
